Assay results published in patent publication US20100093760A1, “METHODS FOR IDENTIFYING COMPOUNDS THAT MODULATE CELL SIGNALING AND METHODS EMPLOYING SUCH COMPOUNDS” (The General Hospital Corporation, priority 2006, published 2010).
“Also recorded” adds a separate entry of the source. Read-outs that look alike come from different tables or passages of the source.

Legend:
zebrafish embryos [1] = type: in vivo; conditions: for phenotype: 8 ng of either morpholino alone, 24 hpf; for % Dorsalized / Dorsalized, number of embryos / Early lethality, number of embryos / Total survivors: treatment at 3 hpf
zebrafish embryos [2] = type: in vivo; conditions: zebrafish, in vivo
Description: According to one example of the whole animal-based screening methods of the invention, 1-2 hour old zebrafish embryos are arrayed in the wells of 96-well plates, three embryos per well. A chemical library, which is comprised of tens of thousands of diverse small molecules, is then pin-transferred into the wells at a final concentration of ˜2 to 10 uM. Embryos are observed over the course of next 24-48 hours and scored under a dissecting microscope for phenotype consistent with loss of BMP signaling (dorsalized embryos, FIG. 1) or with the loss of nodal signaling (cyclopia, FIG. 2).
Small molecule screening in zebrafish was performed as previously described (Peterson et al., Nat. Biotechnol. 22:595-599, 2004) with several modifications. Pairs of wild-type zebrafish were mated, and newly-fertilized eggs were arrayed in triplicate in 96-well plates containing E3 buffer. At 4 hours post fertilization (hpf), compounds were added to wells at 5-10 μM. Embryos were incubated at 28.5° C., and gross morphology of embryos was examined at 12, 24, and 48 hpf for dorsalization or ventralization of embryonic axis, as previously described (Mullins et al., Development 123:81-93, 1996). In total, 7,570 compounds were screened, including synthetic screening compounds (Chembridge Corporation, 5,580 small molecules) and known bioactive compounds (Microsource Discovery Systems, 1,840 small molecules and Sigma-Aldrich, 150 small molecules). For follow up studies, Compound C/Dorsomorphin and Ara-A (adenine 9-β-D-arabinofurano-side) were purchased from Sigma (St. Louis, Mo.), and C75 was purchased from EMD Biosciences (San Diego, Calif.).

[3] = system: hepcidin (HAMP) and Id1 mRNA; test: Hepcidin and Id1 mRNA qRT-PCR in Hep3B cells; type: cell-based, human
Description: Quantitative RT-PCR was performed for mRNA encoding Id1 or human hepcidin (HAMP) as previously described (Babitt et al., Nat. Genet. 38:531-539, 2006; Yu et al., J. Biol. Chem. 280:24443-24450, 2005), and normalized to 18S ribosomal RNA (rRNA) or β-actin mRNA levels.

MAPK p38 = test: Immunoblot of BMP4-mediated MAPK p38 phosphorylation in PASMCs; type: cell-based, murine; conditions: noggin 100-200 ng/ml pretreatment 30 minutes
[4] = system: BMP-mediated SMAD1/5/8 phosphorylation; test: Immunoblot of BMP-induced SMAD1/5/8 phosphorylation in PASMCs; type: cell-based, murine; conditions: PASMCs, noggin 100-200 ng/ml pretreatment 30 minutes
Description: Wild-type and BMPR-II-deficient PASMC were isolated as previously described (Yu et al., J. Biol. Chem. 280:24443-24450, 2005), and cultured in RPMI medium (Invitrogen) supplemented with 10% FBS. C2C12 cells (American Type Culture Collection, Manassas, Va.) were cultured in DMEM supplemented with glutamine and 10% FBS. HepG2 cells and Hep3B cells (ATCC) were cultured in Minimal Essential Alpha Medium with L-glutamine (α-MEM, Invitrogen) containing 10% FBS. For studies of SMAD activation in vitro, PASMC were incubated in 0.5% FCS RPMI for 24 hours, followed by preincubation with drug compounds, noggin, or vehicle for 30 minutes, followed the addition of recombinant BMPs 2, 4, 6, or 7, or TGF-β1 or Activin A (R&D Systems, Minneapolis, Minn.) for 30 minutes.
Cell extracts or tissues were mechanically homogenized in SDS-lysis buffer (62.5 mM Tris-HCl (pH 6.8), 2% SDS, 10% glycerol, 50 mM DTT, 0.01% bromophenol blue); separated by SDS-PAGE; immunoblotted with anti-phospho-SMAD1/5/8, anti-phospho-SMAD2 (Cell Signaling, Beverly, Mass.), or anti-α-tubulin (Upstate/Millipore, Billerica, Mass.) Abs; and visualized using ECL Plus (GE Healthcare, Piscataway, N.J.). Levels of immunoreactive proteins were quantitated by ImageQuant software on a Storm phosphorimager (GE Healthcare).
The statistical significance of compared measurements was measured using the student's two-tailed T-test or one-way ANOVA with Bonferroni correction. Hill plot analysis of Compound C/Dorsomorphin inhibition of SMAD1/5/8 phosphorylation was performed using GraFit software (Erithacus Software, Surrey, England).

“αA: splice-targeting morpholino against zebrafish AMPK α-subunit ortholog αA (CACCCTGGAAAGTT TTACCTTTGAC) (antisense CACCCTGGAAAGTTTTACCTTTGAC; all phosphorodiamidate morpholino (PMO)) [reference compound]” was tested, and the phenotype (zebrafish embryos [1]) was “did not exhibit any phenotype”.

In the case of `C=C1C(=O)OC(CCCCCCCC)C1C(=O)O` (stereo not shown) [Compound C75, reference compound], the “% Dorsalized” value (zebrafish embryos [1]; C75 4 μM) is reported as 0%, the “Dorsalized, number of embryos” value (zebrafish embryos [1]; C75 4 μM) is reported as 0 and the “Early lethality, number of embryos” value (zebrafish embryos [1]; C75 4 μM) is reported as 0. For the same molecule, the Total survivors (zebrafish embryos [1]; C75 4 μM) was 20, the “% Dorsalized” value (zebrafish embryos [1]; C75 20 μM) was 0% and the “Dorsalized, number of embryos” value (zebrafish embryos [1]; C75 20 μM) was 0. For the same molecule, the “Early lethality, number of embryos” value (zebrafish embryos [1]; C75 20 μM) was 0, the Total survivors (zebrafish embryos [1]; C75 20 μM) was 40 and the “% Dorsalized” value (zebrafish embryos [1]; C75 40 μM) was 0%. The “Dorsalized, number of embryos” value (zebrafish embryos [1]; C75 40 μM) was 0, the “Early lethality, number of embryos” value (zebrafish embryos [1]; C75 40 μM) was 0 and the Total survivors (zebrafish embryos [1]; C75 40 μM) was 40. For the same molecule, the “% Dorsalized” value (zebrafish embryos [1]; C75 100 μM) was 0%, the “Dorsalized, number of embryos” value (zebrafish embryos [1]; C75 100 μM) was 0 and the “Early lethality, number of embryos” value (zebrafish embryos [1]; C75 100 μM) was 20. The Total survivors (zebrafish embryos [1]; C75 100 μM) was 0, the “% Dorsalized” value (zebrafish embryos [1]; C75 200 μM) was 0% and the “Dorsalized, number of embryos” value (zebrafish embryos [1]; C75 200 μM) was 0. For the same molecule, the “Early lethality, number of embryos” value (zebrafish embryos [1]; C75 200 μM) was 40, the Total survivors (zebrafish embryos [1]; C75 200 μM) was 0 and the “% Dorsalized” value (zebrafish embryos [1]; C75 400 μM) was 0%. For the same molecule, the “Dorsalized, number of embryos” value (zebrafish embryos [1]; C75 400 μM) was 0, the “Early lethality, number of embryos” value (zebrafish embryos [1]; C75 400 μM) was 40 and the Total survivors (zebrafish embryos [1]; C75 400 μM) was 0. For the same molecule, the dorsalization phenotype (zebrafish embryos [1]; C75, any concentration tested (1-100 μg/ml), from 3 hpf) was “without evidence of dorsalization”, the “dorsalization by structurally-unrelated inhibitors of AMPK activity” value (zebrafish embryos [2]) was “did not dorsalize zebrafish embryos” and the “toxicity of structurally-unrelated inhibitors of AMPK activity” value (zebrafish embryos [2]) was “non-specific toxicity such as developmental delay and death”.

For `NC(=O)c1ccc(-c2nc(-c3ccc4c(c3)OCO4)c(-c3ccccn3)[nH]2)cc1` [SB-431542, reference compound], the zebrafish embryo phenotype (zebrafish embryos [1]; known specific inhibitor of the TGF-β/activin/nodal branch) was “cyclopia, but not dorsalization”.

With “αB: splice-targeting morpholino against zebrafish AMPK α-subunit ortholog αB (TAAATGAACA GACTTAACTCTTCAC) (antisense TAAATGAACAGACTTAACTCTTCAC; all phosphorodiamidate morpholino (PMO)) [reference compound]” the phenotype (zebrafish embryos [1]) was “did not exhibit any phenotype”.

For `Nc1ncnc2c1ncn2[C@@H]1O[C@H](CO)[C@@H](O)[C@@H]1O` [Ara-A, adenine 9-β-D-arabinofurano-side, reference compound], the “effect on BMP4-induced hepcidin mRNA expression” value ([3]; Ara-A 250 μM 30 minutes before BMP4 20 ng/ml) was “did not impair; also recorded: did not significantly affect”, the “lowering of baseline hepcidin expression” value ([3]; Ara-A 250 μM alone) was 40% and the “dorsalization by structurally-unrelated inhibitors of AMPK activity” value (zebrafish embryos [2]) was “did not dorsalize zebrafish embryos”. For the same molecule, the “toxicity of structurally-unrelated inhibitors of AMPK activity” value (zebrafish embryos [2]) was “non-specific toxicity such as developmental delay and death”.

B1: noggin: soluble BMP antagonist; preferential inhibitor of BMP2 and BMP4 activity (protein, UniProt Q13253 28-232, looked up)
Noggin: QHYLHIRPAPSDNLPLVDLIEHPDPIFDPKEKDLNETLLRSLLGGHYDPGFMATSPPEDRPGGGGGAAGGAEDLAELDQLLRQRPSGAMPSEIKGLEFSEGLAQGKKQRLSKKLRRKLQMWLWSQTFCPVLYAWNDLGSRFWPRYVKVGSCFSKRSCSVPEGMVCKPSKSVHLTVLRWRCQRRGGQRCGWIPIQYPIISECKCSC
B1 was tested, and the “effect on BMP4-mediated phosphorylation of MAPK p38” value (MAPK p38) was “inhibited” and the “effect on BMP4-mediated phosphorylation of SMAD1/5/8” value [4] was “inhibited”.

B2: BMP4: recombinant bone morphogenetic protein ligand (R&D Systems) (protein, UniProt P12644 293-408, looked up)
Bone morphogenetic protein 4: SPKHHSQRARKKNKNCRRHSLYVDFSDVGWNDWIVAPPGYQAFYCHGDCPFPLADHLNSTNHAIVQTLVNSVNSSIPKACCVPTELSAISMLYLDEYDKVVLKNYQEMVVEGCGCR
B2 was tested, and the “increase in hepcidin mRNA” value ([3]; BMP4 20 ng/ml, four hours) was 35 fold.
